By IC50 is commonly meant the point on the concentration scale where inhibition reaches its midpoint.

What all share (type): cell-based
For assay [1], the target named is T1, human TLR9 (Homo sapiens, UniProt Q9NR96).
T1 construct: host or cells: HEK-Blue cells (HEK293-derived reporter line)
T1 sequence (Q9NR96 26-1032): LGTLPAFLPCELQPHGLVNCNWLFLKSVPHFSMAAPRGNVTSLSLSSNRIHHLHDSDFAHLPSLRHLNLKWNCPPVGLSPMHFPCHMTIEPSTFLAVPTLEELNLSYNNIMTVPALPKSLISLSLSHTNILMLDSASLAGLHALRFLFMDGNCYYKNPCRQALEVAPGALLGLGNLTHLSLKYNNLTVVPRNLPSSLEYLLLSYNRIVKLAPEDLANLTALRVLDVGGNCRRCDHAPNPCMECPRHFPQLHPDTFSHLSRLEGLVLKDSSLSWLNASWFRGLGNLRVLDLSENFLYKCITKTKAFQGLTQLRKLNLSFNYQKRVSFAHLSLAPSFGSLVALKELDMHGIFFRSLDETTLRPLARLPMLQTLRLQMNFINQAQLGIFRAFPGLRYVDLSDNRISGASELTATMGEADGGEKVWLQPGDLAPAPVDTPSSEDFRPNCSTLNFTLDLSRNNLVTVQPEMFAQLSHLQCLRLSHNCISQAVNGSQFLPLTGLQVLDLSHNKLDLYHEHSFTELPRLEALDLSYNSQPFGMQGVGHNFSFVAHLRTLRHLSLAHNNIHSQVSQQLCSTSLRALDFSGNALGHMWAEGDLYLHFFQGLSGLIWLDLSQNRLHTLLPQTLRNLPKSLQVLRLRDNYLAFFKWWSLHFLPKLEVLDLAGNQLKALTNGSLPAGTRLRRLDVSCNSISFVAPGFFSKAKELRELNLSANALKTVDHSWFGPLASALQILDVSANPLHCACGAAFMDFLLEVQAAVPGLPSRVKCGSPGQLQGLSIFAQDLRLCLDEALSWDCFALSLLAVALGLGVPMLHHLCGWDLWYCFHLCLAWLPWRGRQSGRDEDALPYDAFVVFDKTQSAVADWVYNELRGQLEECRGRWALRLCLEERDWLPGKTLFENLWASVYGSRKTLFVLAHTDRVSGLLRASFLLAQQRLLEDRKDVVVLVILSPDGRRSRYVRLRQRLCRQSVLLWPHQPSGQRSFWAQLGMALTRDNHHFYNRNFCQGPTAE
Briefly: TLR9 inhibition reporter assay (HEK-Blue cells, secreted embryonic alkaline phosphatase reporter). In short, it runs like this:
(§1)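 HEK-Blue cells overexpressing the respective receptor, with an NF-κB/AP-1-driven SEAP reporter, were pre-treated with compound (0.05 nM–50 μM) for 30 min at room temperature. Stimulation used gardiquimod 7.5 μM (TLR7), R848 15.9 μM (TLR8) or ODN2006 5 nM (TLR9); SEAP was read after 22 h at 37 °C as percent inhibition.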
A general note: In a reporter assay the amount or activity of a reporter protein is the signal.

Assay [2] has as its target T2, human TLR7 (Homo sapiens, UniProt Q9NYK1).
T2 construct: host or cells: HEK-Blue cells (HEK293-derived reporter line)
T2 sequence (Q9NYK1 27-1049): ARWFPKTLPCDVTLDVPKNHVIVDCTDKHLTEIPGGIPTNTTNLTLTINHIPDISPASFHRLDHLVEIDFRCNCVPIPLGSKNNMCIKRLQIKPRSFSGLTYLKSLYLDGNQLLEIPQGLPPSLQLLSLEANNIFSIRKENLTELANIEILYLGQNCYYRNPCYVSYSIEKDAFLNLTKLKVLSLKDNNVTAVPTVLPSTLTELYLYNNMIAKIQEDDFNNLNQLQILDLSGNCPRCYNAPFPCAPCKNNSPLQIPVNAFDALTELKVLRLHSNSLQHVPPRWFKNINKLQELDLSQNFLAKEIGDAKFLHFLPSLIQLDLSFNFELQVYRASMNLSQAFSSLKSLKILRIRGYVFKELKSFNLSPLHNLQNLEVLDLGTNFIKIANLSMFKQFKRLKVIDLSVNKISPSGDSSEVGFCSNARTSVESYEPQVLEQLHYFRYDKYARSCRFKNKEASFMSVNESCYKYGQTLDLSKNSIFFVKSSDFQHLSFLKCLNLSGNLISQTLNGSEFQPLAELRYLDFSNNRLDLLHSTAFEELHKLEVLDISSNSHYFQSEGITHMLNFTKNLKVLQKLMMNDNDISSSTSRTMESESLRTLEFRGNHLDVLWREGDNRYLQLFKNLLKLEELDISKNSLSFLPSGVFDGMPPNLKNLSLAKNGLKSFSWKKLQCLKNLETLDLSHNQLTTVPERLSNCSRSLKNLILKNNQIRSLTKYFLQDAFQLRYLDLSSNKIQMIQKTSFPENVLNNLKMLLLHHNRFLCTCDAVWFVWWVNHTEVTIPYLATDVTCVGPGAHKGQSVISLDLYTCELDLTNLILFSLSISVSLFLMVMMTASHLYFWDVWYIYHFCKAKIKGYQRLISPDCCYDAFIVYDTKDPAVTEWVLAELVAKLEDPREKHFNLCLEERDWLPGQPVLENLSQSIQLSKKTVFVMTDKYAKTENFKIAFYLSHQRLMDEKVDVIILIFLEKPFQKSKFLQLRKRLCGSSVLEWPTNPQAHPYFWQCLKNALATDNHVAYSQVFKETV
Briefly: TLR7 inhibition reporter assay (HEK-Blue cells, secreted embryonic alkaline phosphatase reporter). The settings on record: HEK-Blue cells overexpressing human TLR7, stimulated with gardiquimod 7.5 μM; read-out: TLR 7 IC50. In short, it runs like this: as §1

Assay [3] has as its target T3, human TLR8 (Homo sapiens, UniProt Q9NR97).
T3 construct: host or cells: HEK-Blue cells (HEK293-derived reporter line)
T3 sequence (Q9NR97 27-1041): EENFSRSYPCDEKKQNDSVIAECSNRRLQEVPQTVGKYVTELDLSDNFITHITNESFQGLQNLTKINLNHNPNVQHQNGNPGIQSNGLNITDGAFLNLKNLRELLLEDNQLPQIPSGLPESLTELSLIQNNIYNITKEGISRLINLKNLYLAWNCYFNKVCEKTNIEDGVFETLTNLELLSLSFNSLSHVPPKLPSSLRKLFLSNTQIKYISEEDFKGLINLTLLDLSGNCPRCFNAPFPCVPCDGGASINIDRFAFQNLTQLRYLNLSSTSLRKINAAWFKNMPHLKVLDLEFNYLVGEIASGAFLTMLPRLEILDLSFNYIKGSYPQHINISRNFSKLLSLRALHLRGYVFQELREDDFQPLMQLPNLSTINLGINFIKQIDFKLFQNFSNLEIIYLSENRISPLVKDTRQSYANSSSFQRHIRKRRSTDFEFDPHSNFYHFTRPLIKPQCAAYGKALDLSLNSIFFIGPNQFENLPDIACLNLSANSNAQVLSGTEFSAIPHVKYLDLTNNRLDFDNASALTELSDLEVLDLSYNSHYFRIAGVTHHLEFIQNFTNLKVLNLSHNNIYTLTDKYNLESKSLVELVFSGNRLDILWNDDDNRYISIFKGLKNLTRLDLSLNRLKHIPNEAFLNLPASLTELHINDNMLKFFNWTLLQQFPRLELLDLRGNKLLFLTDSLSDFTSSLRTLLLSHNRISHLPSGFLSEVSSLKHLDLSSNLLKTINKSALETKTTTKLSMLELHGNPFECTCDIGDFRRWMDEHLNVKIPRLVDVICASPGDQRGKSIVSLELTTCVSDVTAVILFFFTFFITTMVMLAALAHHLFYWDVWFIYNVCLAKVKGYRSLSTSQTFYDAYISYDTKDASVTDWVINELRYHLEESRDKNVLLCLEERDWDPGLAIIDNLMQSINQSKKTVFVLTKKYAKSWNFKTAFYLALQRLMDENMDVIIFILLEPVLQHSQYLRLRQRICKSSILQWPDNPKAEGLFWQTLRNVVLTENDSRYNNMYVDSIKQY
Nature of the assay: TLR8 inhibition reporter assay (HEK-Blue cells, secreted embryonic alkaline phosphatase reporter). The settings on record: HEK-Blue cells overexpressing human TLR8, stimulated with R848 15.9 μM; read-out: TLR 8 IC50. In short, it runs like this:
as §1

The mark [4] stands for this setting: HEK-Blue cells overexpressing human TLR9, stimulated with ODN2006 5 nM, read-out: TLR 9 IC50.
Setting [5] is: HEK-Blue cells overexpressing human TLR9, stimulated with ODN2006 5 nM, 22 hour incubation, reporter readout.

Read-outs that look alike come from different tables or passages of the source. A value given as a limit tells only on which side of the number the result lay.

In the case of `COCCN1C2CCC1CC(N1CCC(c3ccc4c(nc(-c5ccc(S(C)(=O)=O)cc5)n4C)c3F)CC1)C2` (single isomer, unassigned) [Example 200, 4-fluoro-5-(1-(8-(2-methoxyethyl)-8-azabicyclo[3.2.1]octan-3-yl)piperidin-4-yl)-1-methyl-2-(4-(methylsulfonyl)phenyl)-1H-benzo[d]imidazole], the IC50 is 380 nM in assay [1], 380 nM in assay [1] (setting [4]), 47800 nM in assay [2] and more than 50000 nM in assay [3].

With `CC(C)CN1C2CCC1CC(N1CCC(c3ccc4nc(-c5ccc(S(C)(=O)=O)cc5)n(C)c4c3F)CC1)C2` (single isomer, unassigned) [Example 267, 7-fluoro-6-(1-(8-isobutyl-8-azabicyclo[3.2.1]octan-3-yl)piperidin-4-yl)-1-methyl-2-(4-(methylsulfonyl)phenyl)-1H-benzo[d]imidazole], the IC50 in assay [1] was 350 nM; in assay [1] (setting [4]), 347 nM; in assay [2], more than 50000 nM; in assay [3] it was more than 50000 nM.

For `CC(C)N1CCC(N2CCC(c3ccc4nc(-c5ccc(S(C)(=O)=O)cc5)n(C)c4c3F)CC2)CC1` [Example 102, 7-fluoro-6-(1′-isopropyl-[1,4′-bipiperidin]-4-yl)-1-methyl-2-(4-(methylsulfonyl)phenyl)-1H-benzo[d]imidazole], the IC50 in assay [1] (setting [5]) was 30 nM; in assay [2], 9800 nM; in assay [3], more than 50000 nM.

`Cn1c(-c2ccc(S(C)(=O)=O)cc2)nc2c(F)c(C3CCN(C4CC5CCC(C4)N5C4COC4)CC3)ccc21` (centres unmarked) [Example 196, 4-fluoro-1-methyl-2-(4-(methylsulfonyl)phenyl)-5-(1-(8-(oxetan-3-yl)-8-azabicyclo[3.2.1]octan-3-yl)piperidin-4-yl)-1H-benzo[d]imidazole]: the IC50 in assay [1] was 580 nM; in assay [1] (setting [4]), 578 nM; in assay [2] it was more than 50000 nM; in assay [3], more than 50000 nM.

For `Cc1cc(-c2cccc(CN3CCC(N4CCCC4)CC3)c2)cc2c1nc(-c1ccc(S(C)(=O)=O)cc1)n2C1CC1` [Example 407, 1-cyclopropyl-4-methyl-2-(4-(methylsulfonyl)phenyl)-6-(3-((4-(pyrrolidin-1-yl)piperidin-1-yl)methyl)phenyl)-1H-benzo[d]imidazole], the IC50 in assay [1] (setting [5]) amounted to 46 nM; in assay [1] (setting [4]), 46 nM; in assay [2], 800 nM; in assay [3], 5000 nM.

Regarding `CC(C)CN1C2CCC1CC(N1CCC(c3ccc4nc(-c5ccc(S(C)(=O)=O)cc5)[nH]c4c3F)CC1)C2` (single isomer, unassigned) [Example 220, 7-fluoro-6-(1-(8-isobutyl-8-azabicyclo[3.2.1]octan-3-yl)piperidin-4-yl)-2-(4-(methylsulfonyl)phenyl)-1H-benzo[d]imidazole], the IC50 in assay [1] is 680 nM; in assay [1] (setting [4]), 683 nM; in assay [2], 41900 nM; in assay [3] it was more than 50000 nM.

As for `COCCN1C2CCC1CC(N1CCC(c3ccc4nc(-c5ccc(S(C)(=O)=O)cc5)n(C)c4c3F)CC1)C2` (single isomer, unassigned) [Example 277, 7-fluoro-6-(1-(8-(2-methoxyethyl)-8-azabicyclo[3.2.1]octan-3-yl)piperidin-4-yl)-1-methyl-2-(4-(methylsulfonyl)phenyl)-1H-benzo[d]imidazole], the IC50 worked out at 270 nM in assay [1], 269 nM in assay [1] (setting [4]), 1000 nM in assay [2] and 16300 nM in assay [3].

As to `COc1cc(-c2nc3c(C)cc(C4CCN(C5CC6CCC(C5)N6C5CCC5)CC4)cc3n2C)cn2ncnc12` (single isomer, unassigned) [Example 355, 6-(6-(1-(8-cyclobutyl-8-azabicyclo[3.2.1]octan-3-yl)piperidin-4-yl)-1,4-dimethyl-1H-benzo[d]imidazol-2-yl)-8-methoxy-[1,2,4]triazolo[1,5-a]pyridine], the IC50 in assay [1] (setting [4]) worked out at 11 nM; in assay [1] (HEK-Blue human TLR9 reporter cells), 11 nM; in assay [2], 200 nM; in assay [3] it was 3100 nM.

As for `COc1ccc(-c2nc3c(C)cc(C4CCN(C5CC6(C5)CN(C(C)C)C6)CC4)cc3n2C)cc1OC` [Example 16, 2-(3,4-dimethoxyphenyl)-6-(1-(2-isopropyl-2-azaspiro[3.3]heptan-6-yl)piperidin-4-yl)-1,4-dimethyl-1H-benzo[d]imidazole tris(2,2,2-trifluoroacetate)], the IC50 is 100 nM in assay [1] (setting [5]), 10.4 nM in assay [1] (setting [4]), 10000 nM in assay [2] and more than 50000 nM in assay [3].

The values are drawn from patent US12492188B2, “1H-benzo[D]imidazole derivatives as TLR9 inhibitors for the treatment of fibrosis” (BRISTOL-MYERS SQUIBB COMPANY, priority 2020, dated 2025).
